In PMC11191317, “PNSC928, a plant-derived compound, specifically disrupts CtBP2-p300 interaction and reduces inflammation in mice with acute respiratory distress syndrome” (Biology Direct, 2024):

Assays:
[1] = biological target: T1, CtBP2-p300^BRD interaction (Mus musculus, UniProt B2RWS6+P56546); assay: In vitro pulldown assay with His-CtBP2 and GST-p300^BRD; assay type: binding; conditions: PNSC928 0, 11.8, 23.6, and 47.2 µM; 80 nM GST-p300^BRD and 40 nM His-CtBP2
T1 construct: R1 (1-1000 amino acids, aa), R2 (1001–1201 aa), R3 (1202–1810 aa); made in house; host or cells: E. coli BL21
T1 sequence (B2RWS6 1001-1201 limits assumed): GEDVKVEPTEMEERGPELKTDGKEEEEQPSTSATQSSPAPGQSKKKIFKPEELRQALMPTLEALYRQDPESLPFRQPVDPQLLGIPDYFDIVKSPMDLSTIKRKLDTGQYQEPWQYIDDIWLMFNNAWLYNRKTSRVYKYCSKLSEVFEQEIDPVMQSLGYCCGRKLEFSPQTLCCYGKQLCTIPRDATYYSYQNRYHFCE
T1 sequence (P56546 whole entry, the tested form may be a part): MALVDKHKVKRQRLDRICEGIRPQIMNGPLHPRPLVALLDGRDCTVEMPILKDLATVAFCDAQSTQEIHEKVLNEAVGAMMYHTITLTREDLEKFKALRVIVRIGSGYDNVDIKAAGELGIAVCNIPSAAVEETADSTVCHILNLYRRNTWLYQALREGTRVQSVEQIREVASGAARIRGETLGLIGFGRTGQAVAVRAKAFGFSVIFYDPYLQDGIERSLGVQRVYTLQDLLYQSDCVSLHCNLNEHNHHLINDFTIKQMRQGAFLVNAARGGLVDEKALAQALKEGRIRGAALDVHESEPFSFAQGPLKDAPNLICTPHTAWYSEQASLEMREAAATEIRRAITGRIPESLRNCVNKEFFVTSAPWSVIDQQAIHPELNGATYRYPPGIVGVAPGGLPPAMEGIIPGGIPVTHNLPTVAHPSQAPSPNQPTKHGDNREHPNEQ
Method: Fig. 4 Identification of PNSC928 and determination of its in vitro and in vivo effects on disruption of CtBP2-p300 interaction. (A) A schematic representation illustrating four regions of the p300 amino acid sequence. (B) Co-IP results. Different combinations of plasmids were cotransfected into MPAEpiC cells. After a 48-hour incubation, cells were lysed and used for immunoprecipitation with anti-Flag agarose. The input and output proteins were probed with anti-Flag and anti-Myc antibodies. n = 3. (C) A schematic representation illustrating the in vitro AlphaScreen setup. (D) AlphaScreen signals for different concentrations of His-CtBP2 and GST-p300^BRD. (E) Chemical structure of PNSC928. (F) IC50 of PNSC928 disrupting CtBP2-p300^BRD interaction. (G and H) In vitro pulldown assay in a reaction consisting of His-CtBP2, GST-p300^BRD, and incremental concentrations of PNSC928 (0, 11.8, 23.6, and 47.2 µM). (G) Pulldown with Ni-NTA beads; (H) Pulldown with GST beads.
To probe this interaction, we established an AlphaScreen system that utilized GST-p300^BRD and His-CtBP2, binding to donor and acceptor beads, respectively (Fig. 4C). […] In vitro assays assessed the effects of PNSC928 on the CtBP2-p300^BRD interaction. […] Furthermore, we assessed the impact of combined LPS and PNSC928 treatment on the expression of key molecules in the NF-κB signaling pathway.

ARDS mice = assay: LPS-induced ARDS mouse model; assay type: in vivo
Method: All animal experiments were performed following a protocol reviewed and approved by the Institutional Animal Care and Use Committee at Jiangxi Provincial People’s Hospital. We procured C57BL/6 mice from Charles River Laboratories (Beijing, China) and maintained them in specific pathogen-free (SPF) conditions, with a 12-hour light/dark cycle and free access to food and sterile water. We established the ARDS mouse model by administering LPS via tracheal intubation, following an established protocol. Briefly, mice (eight-week-old, half male and half female, 22–25 g) were anesthetized using isoflurane inhalation and randomly classified into Control and ARDS groups. Control mice received 50 µL sterile saline, while ARDS mice were given 25 µg LPS (Sigma-Aldrich, Shanghai, China; #LPS25) in 50 µL sterile saline. Mice were immediately positioned upright and rotated to evenly distribute the LPS within the lungs.
To assess the impact of CtBP2, p300, NF-κB inhibitors, and PNSC928 on ARDS progression, mice were further categorized post-4 h LPS administration into different groups: ARDS, ARDS + MTOB (700 mg/kg; MedChemExpress; Monmouth Junction, NJ; #HY-135,046), ARDS + NSC95397 (1.5 mg/kg; MedChemExpress; #HY-108,543), ARDS + C646 (10 mg/kg; MedChemExpress; #HY-13,823), ARDS + A-485 (50 mg/kg; MedChemExpress; #HY-107,455), ARDS + TPCA1 (10 mg/kg; MedChemExpress; #HY-10,074), ARDS + BOT64 (50 mg/kg; MedChemExpress; #HY-136,741), and ARDS + PNSC928 (20 mg/kg). Mice received these compounds daily for two days. Body weight and temperature were recorded every 24 h. At 48 h post-LPS challenge, mice were sacrificed, and blood samples and lung tissues were harvested.
To collect bronchoalveolar lavage fluid (BALF), the Control, ARDS, and ARDS + PNSC928 groups of mice (n = 10 for each group) were anesthetized with isoflurane inhalation in accordance with institutional guidelines. Mice were placed on their backs, and a small incision was made at the base of the neck to expose the trachea. A flexible catheter was inserted into the trachea and secured with a suture. A syringe filled with sterile phosphate-buffered saline (PBS) (Thermo Fisher, Shanghai, China; #10,010,023) was attached to the catheter, and 1.5 mL of PBS was gently instilled into the right lungs. After allowing the fluid to sit for 10 s, it was aspirated back into the syringe. This process was repeated three times to ensure thorough lavage. The collected BALF was kept on ice in a sterile tube, then centrifuged at 1,000 × g for 10 min at 4 °C to pellet the cells. The supernatant was stored at -80 °C for further analyses.
Whole blood samples were allowed to stand undisturbed at room temperature for 15 min before being centrifuged at 1,000 × g for 10 min. The supernatant serum and BALF were used to measure concentrations of IL-1β, IL-6, IL-15, IL-18, and TNF-α with specific enzyme-linked immunosorbent assay (ELISA) kits as per manufacturer guidelines. The ELISA kits used were: IL-1β (Thermo Fisher; #KMC0011), IL-6 (Thermo Fisher; #KMC0061), IL-15 (Abcam; Shanghai, China; #ab275898), IL-18 (Thermo Fisher; #BMS618-3), and TNF-α (Thermo Fisher; #BMS607-3). Total BALF protein levels were measured using the BCA Protein Assay Kit (Abcam; #ab102536) according to the manufacturer’s protocol.
MPO activity was determined according to a previously established protocol. Briefly, lung tissues (50 mg per mouse) were washed with ice-cold PBS to remove residual blood, then homogenized in a buffer containing 2.5 g of hexadecyltrimethylammonium bromide (Sigma-Aldrich; # H5882) dissolved in 500 mL of PBS. The tissue homogenate was kept on ice for 30 min before centrifugation at 16,000 × g for 10 min at 4 °C. The supernatant was used to measure MPO activity with the Myeloperoxidase Activity Assay Kit (Abcam; #ab105136) according to the manufacturer’s method.
The right upper lobe of the lung was excised, rinsed with PBS, blotted dry, and weighed to determine the “wet” weight. […]

[2] = ARDS mice, 25 μg LPS + 20 mg/kg PNSC928

CC(=CCCC1=CCC(C2COC(=O)C2)OC1O)CCC1=C(C)CCCC1(C)C (centres unmarked) [PNSC928]
Effect on CtBP2-p300^BRD interaction in pulldown assay [1]: disrupts the CtBP2-p300^BRD interaction in a dose-dependent manner | Lung wet-to-dry weight ratio (ARDS mice; [2]): significant reduction | MPO activity in lung tissues (ARDS mice; [2]): significant reduction | Survival rate of ARDS mice (ARDS mice; [2]): enhancing the survival rate | Total BALF protein levels (ARDS mice; [2]): significant reduction | Lung expressions of IL-1B, IL-6, IL-15, IL-18, TNFA, and IFNG (RT-qPCR) (ARDS mice; ARDS mice, PNSC928 20 mg/kg): significantly reduced | Lung expressions of S100A8, ICAM1, SPP1, FBN1, and SPSB1 (RT-qPCR) (ARDS mice; ARDS mice, PNSC928 20 mg/kg): without notably altering | Serum and BALF concentrations of pro-inflammatory cytokines (ELISA) (ARDS mice; ARDS mice, PNSC928 20 mg/kg from 4 h post-LPS, daily for two days): significantly abated | Serum and BALF pro-inflammatory cytokine levels in comparison to control mice (ARDS mice; ARDS mice, PNSC928 20 mg/kg from 4 h post-LPS, elevated vs control mice): 1.3–1.5 fold | Decrease in body weights and respiratory distress (pO2) caused by LPS (ARDS mice; ARDS mice, PNSC928 20 mg/kg, measured at 0, 1, and 2 days): alleviated | Lung damage by histological examination (H&E, histological scores) (ARDS mice; LPS-challenged mice, PNSC928 20 mg/kg): recovered lung damage
